In the supplement of paper PMC10627819:

Experiments:
S. aureus DSM 20231 [1] = test: fitness (endpoint OD595 vs no drug) (fraction); higher = more growth
In short: (§1)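 Cultures at OD595 0.01 were dispensed into 384-well plates in TSB, LB Lennox or CY and incubated at 37 °C. Every 30 min for 14 h, OD595 was read and corrected by the first reading. Fitness is the optical density at entry into stationary phase relative to the robust mean of no-drug control wells, capped at 1.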

S. aureus Newman [2] = test: as above
In short: as §1

S. pneumoniae D39V [3] = test: as above
In short: as §1

B. subtilis 168 = test: Bliss interaction score (quartile over a dose matrix) (fitness difference); higher = more antagonism (negative = synergy)
In short: (§2)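 Quartiles of the Bliss score were taken over technical, biological and donor/recipient replicates. That score is observed fitness minus the product of the single-drug fitness values, which were inferred from combination data. Fitness itself is OD595 at entry into stationary phase divided by the plate's robust no-drug mean, with a cap at 1.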

S. aureus DSM 20231 [4] = test: as above
In short: as §2

S. aureus Newman [5] = test: as above
In short: as §2

S. pneumoniae D39V [6] = test: as above
In short: as §2
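Wherever Bliss interaction score (quartile over a dose matrix) is given: first quartile when negative (synergy) and third quartile when positive (antagonism).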

CC1(C)S[C@@H]2[C@H](NC(=O)[C@H](N)c3ccc(O)cc3)C(=O)N2[C@H]1C(=O)O [Amoxicillin] + CO/N=C(\C(=O)N[C@@H]1C(=O)N2C(C(=O)O)=C(COC(C)=O)CS[C@H]12)c1csc(N)n1 [Cefotaxime]
fitness
Conditions	first compound 0.0008 µg/mL	first compound 0.0015 µg/mL	first compound 0.003 µg/mL	first compound 0.0625 µg/mL	first compound 0.125 µg/mL	first compound 0.25 µg/mL
S. aureus DSM 20231 [1], partner 0.039 µg/mL	–	–	–	0.465	0.283	0.128
S. aureus DSM 20231 [1], partner 0.078 µg/mL	–	–	–	0.47	0.403	0.103
S. aureus DSM 20231 [1], partner 0.156 µg/mL	–	–	–	0.464	0.221	0.0332
S. aureus DSM 20231 [1], partner 0.312 µg/mL	–	–	–	0.456	0.0746	0.0409
S. aureus Newman [2], partner 0.078 µg/mL	–	–	–	0.728	0.711	0.626
S. aureus Newman [2], partner 0.156 µg/mL	–	–	–	0.575	0.551	0.51
S. aureus Newman [2], partner 0.312 µg/mL	–	–	–	0.327	0.156	0.159
S. aureus Newman [2], partner 0.625 µg/mL	–	–	–	0.191	0.0751	0.13
S. aureus Newman [2], partner 1.25 µg/mL	–	–	–	0.0345	0.0453	0.0376
S. aureus Newman [2], partner 2.5 µg/mL	–	–	–	0.0349	0.0311	0.0239
S. pneumoniae D39V [3], partner 0.0018 µg/mL	0.993	0.998	0.977	–	–	–
S. pneumoniae D39V [3], partner 0.0035 µg/mL	0.986	0.967	0.889	–	–	–
S. pneumoniae D39V [3], partner 0.007 µg/mL	0.882	0.882	0.762	–	–	–

one replicate
Conditions	fitness
S. aureus DSM 20231 [1], first compound 0.5 µg/mL, partner 0.039 µg/mL	0.0334
S. aureus DSM 20231 [1], first compound 0.5 µg/mL, partner 0.078 µg/mL	0.0321
S. aureus DSM 20231 [1], first compound 0.5 µg/mL, partner 0.156 µg/mL	0.0325
S. aureus DSM 20231 [1], first compound 0.5 µg/mL, partner 0.312 µg/mL	0.0506
S. aureus Newman [2], first compound 0.0625 µg/mL, partner 0.039 µg/mL	0.709
S. aureus Newman [2], first compound 0.125 µg/mL, partner 0.039 µg/mL	0.736
S. aureus Newman [2], first compound 0.25 µg/mL, partner 0.039 µg/mL	0.749
S. pneumoniae D39V [3], first compound 0.006 µg/mL, partner 0.0018 µg/mL	0.457
S. pneumoniae D39V [3], first compound 0.006 µg/mL, partner 0.0035 µg/mL	0.344
S. pneumoniae D39V [3], first compound 0.006 µg/mL, partner 0.007 µg/mL	0.176

Conditions	Bliss interaction score
B. subtilis 168	0.0789
S. aureus DSM 20231 [4]	-0.14
S. aureus Newman [5]	-0.0401
S. pneumoniae D39V [6]	-0.0441

CC1(C)S[C@@H]2[C@H](NC(=O)[C@H](N)c3ccc(O)cc3)C(=O)N2[C@H]1C(=O)O [Amoxicillin] + CO/N=C(\C(=O)N[C@@H]1C(=O)N2C(C(=O)[O-])=C(C[N+]3(C)CCCC3)CS[C@H]12)c1csc(N)n1 [Cefepime]
Conditions	fitness
S. aureus DSM 20231 [1], first compound 0.0625 µg/mL, partner 0.125 µg/mL	0.566
S. aureus DSM 20231 [1], first compound 0.0625 µg/mL, partner 0.25 µg/mL	0.553
S. aureus DSM 20231 [1], first compound 0.0625 µg/mL, partner 0.5 µg/mL	0.499
S. aureus DSM 20231 [1], first compound 0.125 µg/mL, partner 0.125 µg/mL	0.393
S. aureus DSM 20231 [1], first compound 0.125 µg/mL, partner 0.25 µg/mL	0.477
S. aureus DSM 20231 [1], first compound 0.25 µg/mL, partner 0.125 µg/mL	0.307
S. aureus DSM 20231 [1], first compound 0.25 µg/mL, partner 0.25 µg/mL	0.195
S. aureus DSM 20231 [1], first compound 0.25 µg/mL, partner 0.5 µg/mL	0.0559
S. aureus DSM 20231 [1], first compound 0.5 µg/mL, partner 0.125 µg/mL	0
S. aureus DSM 20231 [1], first compound 0.5 µg/mL, partner 0.25 µg/mL	0.0413
S. aureus DSM 20231 [1], first compound 0.5 µg/mL, partner 0.5 µg/mL	0.0026
S. aureus Newman [2], first compound 0.0625 µg/mL, partner 0.125 µg/mL	0.829
S. aureus Newman [2], first compound 0.0625 µg/mL, partner 0.25 µg/mL	0.792
S. aureus Newman [2], first compound 0.0625 µg/mL, partner 0.5 µg/mL	0.707
S. aureus Newman [2], first compound 0.125 µg/mL, partner 0.125 µg/mL	0.906
S. aureus Newman [2], first compound 0.125 µg/mL, partner 0.25 µg/mL	0.788
S. aureus Newman [2], first compound 0.125 µg/mL, partner 0.5 µg/mL	0.736
S. aureus Newman [2], first compound 0.25 µg/mL, partner 0.125 µg/mL	0.851
S. aureus Newman [2], first compound 0.25 µg/mL, partner 0.25 µg/mL	0.725
S. aureus Newman [2], first compound 0.25 µg/mL, partner 0.5 µg/mL	0.753
S. pneumoniae D39V [3], first compound 0.0008 µg/mL, partner 0.007 µg/mL	0.977
S. pneumoniae D39V [3], first compound 0.0008 µg/mL, partner 0.014 µg/mL	0.982
S. pneumoniae D39V [3], first compound 0.0008 µg/mL, partner 0.028 µg/mL	0.849
S. pneumoniae D39V [3], first compound 0.0015 µg/mL, partner 0.007 µg/mL	0.989
S. pneumoniae D39V [3], first compound 0.0015 µg/mL, partner 0.0078 µg/mL	≥ 1
S. pneumoniae D39V [3], first compound 0.0015 µg/mL, partner 0.014 µg/mL	0.959
S. pneumoniae D39V [3], first compound 0.0015 µg/mL, partner 0.0155 µg/mL	≥ 1
S. pneumoniae D39V [3], first compound 0.0015 µg/mL, partner 0.028 µg/mL	0.82
S. pneumoniae D39V [3], first compound 0.0015 µg/mL, partner 0.031 µg/mL	0.792
S. pneumoniae D39V [3], first compound 0.003 µg/mL, partner 0.007 µg/mL	0.943
S. pneumoniae D39V [3], first compound 0.003 µg/mL, partner 0.0078 µg/mL	≥ 1
S. pneumoniae D39V [3], first compound 0.003 µg/mL, partner 0.014 µg/mL	0.942
S. pneumoniae D39V [3], first compound 0.003 µg/mL, partner 0.0155 µg/mL	0.907
S. pneumoniae D39V [3], first compound 0.003 µg/mL, partner 0.028 µg/mL	0.813
S. pneumoniae D39V [3], first compound 0.003 µg/mL, partner 0.031 µg/mL	0.499

fitness, S. pneumoniae D39V [3], one replicate
Conditions	partner 0.0078 µg/mL	partner 0.0155 µg/mL	partner 0.031 µg/mL
first compound 0.0008 µg/mL	≥ 1	≥ 1	0.811
first compound 0.006 µg/mL	0.484	0.384	0.103

Conditions	Bliss interaction score
B. subtilis 168	0.0811
S. aureus DSM 20231 [4]	0.0643
S. aureus Newman [5]	-0.0522
S. pneumoniae D39V [6]	-0.0542

CC1(C)S[C@@H]2[C@H](NC(=O)[C@H](N)c3ccc(O)cc3)C(=O)N2[C@H]1C(=O)O [Amoxicillin] + COc1c(N2C[C@@H]3CCCN[C@@H]3C2)c(F)cc2c(=O)c(C(=O)O)cn(C3CC3)c12 [Moxifloxacin]
Conditions	fitness
S. aureus DSM 20231 [1], first compound 0.0625 µg/mL, partner 0.0075 µg/mL	0.51
S. aureus DSM 20231 [1], first compound 0.0625 µg/mL, partner 0.015 µg/mL	0.482
S. aureus DSM 20231 [1], first compound 0.0625 µg/mL, partner 0.03 µg/mL	0.403
S. aureus DSM 20231 [1], first compound 0.125 µg/mL, partner 0.0075 µg/mL	0.382
S. aureus DSM 20231 [1], first compound 0.125 µg/mL, partner 0.015 µg/mL	0.374
S. aureus DSM 20231 [1], first compound 0.125 µg/mL, partner 0.03 µg/mL	0.203
S. aureus DSM 20231 [1], first compound 0.25 µg/mL, partner 0.0075 µg/mL	0.152
S. aureus DSM 20231 [1], first compound 0.25 µg/mL, partner 0.015 µg/mL	0.119
S. aureus DSM 20231 [1], first compound 0.25 µg/mL, partner 0.03 µg/mL	0.034
S. aureus DSM 20231 [1], first compound 0.5 µg/mL, partner 0.0075 µg/mL	0.0102
S. aureus DSM 20231 [1], first compound 0.5 µg/mL, partner 0.015 µg/mL	0.0002
S. aureus DSM 20231 [1], first compound 0.5 µg/mL, partner 0.03 µg/mL	0.0026
S. aureus Newman [2], first compound 0.0625 µg/mL, partner 0.0075 µg/mL	0.715
S. aureus Newman [2], first compound 0.0625 µg/mL, partner 0.015 µg/mL	0.609
S. aureus Newman [2], first compound 0.125 µg/mL, partner 0.0075 µg/mL	0.705
S. pneumoniae D39V [3], first compound 0.0008 µg/mL, partner 0.005 µg/mL	0.968
S. pneumoniae D39V [3], first compound 0.0008 µg/mL, partner 0.01 µg/mL	0.977
S. pneumoniae D39V [3], first compound 0.0008 µg/mL, partner 0.02 µg/mL	0.913
S. pneumoniae D39V [3], first compound 0.0015 µg/mL, partner 0.005 µg/mL	0.972
S. pneumoniae D39V [3], first compound 0.0015 µg/mL, partner 0.01 µg/mL	0.967
S. pneumoniae D39V [3], first compound 0.0015 µg/mL, partner 0.02 µg/mL	0.905
S. pneumoniae D39V [3], first compound 0.0015 µg/mL, partner 0.0312 µg/mL	0.314
S. pneumoniae D39V [3], first compound 0.0015 µg/mL, partner 0.0625 µg/mL	0.147
S. pneumoniae D39V [3], first compound 0.0015 µg/mL, partner 0.125 µg/mL	0.0837
S. pneumoniae D39V [3], first compound 0.003 µg/mL, partner 0.005 µg/mL	0.92
S. pneumoniae D39V [3], first compound 0.003 µg/mL, partner 0.01 µg/mL	0.92
S. pneumoniae D39V [3], first compound 0.003 µg/mL, partner 0.02 µg/mL	0.901
S. pneumoniae D39V [3], first compound 0.003 µg/mL, partner 0.0312 µg/mL	0.277
S. pneumoniae D39V [3], first compound 0.003 µg/mL, partner 0.0625 µg/mL	0.211
S. pneumoniae D39V [3], first compound 0.003 µg/mL, partner 0.125 µg/mL	0.0689

one replicate
Conditions	fitness
S. aureus DSM 20231 [1], first compound 0.125 µg/mL, partner 0.06 µg/mL	0.388
S. aureus DSM 20231 [1], first compound 0.125 µg/mL, partner 0.12 µg/mL	0.0813
S. aureus DSM 20231 [1], first compound 0.25 µg/mL, partner 0.06 µg/mL	0.112
S. aureus DSM 20231 [1], first compound 0.25 µg/mL, partner 0.12 µg/mL	0.0126
S. aureus DSM 20231 [1], first compound 0.5 µg/mL, partner 0.06 µg/mL	0.0085
S. aureus DSM 20231 [1], first compound 0.5 µg/mL, partner 0.12 µg/mL	0.0156
S. pneumoniae D39V [3], first compound 0.0008 µg/mL, partner 0.0312 µg/mL	0.209
S. pneumoniae D39V [3], first compound 0.0008 µg/mL, partner 0.0625 µg/mL	0.167
S. pneumoniae D39V [3], first compound 0.0008 µg/mL, partner 0.125 µg/mL	0.103
S. pneumoniae D39V [3], first compound 0.006 µg/mL, partner 0.0312 µg/mL	0.0891
S. pneumoniae D39V [3], first compound 0.006 µg/mL, partner 0.0625 µg/mL	0.0684
S. pneumoniae D39V [3], first compound 0.006 µg/mL, partner 0.125 µg/mL	0.0138

Conditions	Bliss interaction score
B. subtilis 168	0.0481
S. aureus DSM 20231 [4]	-0.0301
S. aureus Newman [5]	0.046
S. pneumoniae D39V [6]	0.0639
